SMILES strings stand for the structures. “Also recorded” adds a separate entry of the source.

The target in assay [1] is T1, hNaV1.1 (Homo sapiens, UniProt P35498). As to the kind of experiment: Peak INa voltage-dependent block, patch clamp. The class given is cell-based. As to the method:
(§1) Voltage Dependent Block (VDB): VDB protocols used a depolarized voltage to keep channels in half-inactivated (resting) states. This allowed equilibrium binding and accurate determination of isoform selectivity (in the absence of biological features). For each cell, the midpoint of inactivation (V0.5) was determined using a 5,000 ms step to increase voltages (10 mV increments) to inactivate the channel immediately followed by a 2 ms step to 0 mV to maximally activate the channels. The holding potential (Vhold) was −120 mV between steps. The peak INa measured in response to the step to 0 mV was plotted and fitted with a Boltzmann equation to determine the V0.5. This value was then used for the VDB protocol. Pharmacology was measured during peak INa in response to step to 0 mV. No leak subtraction was used.
In general terms: Patch clamp records ionic current or voltage across a cell membrane.

The target of assay [2] is T2, hNaV1.5 (Homo sapiens, UniProt Q14524). Briefly: Peak INa voltage-dependent block, patch clamp. The class given is cell-based. The protocol: as §1
T2 sequence (Q14524 1-2015 isoform Q14524-2): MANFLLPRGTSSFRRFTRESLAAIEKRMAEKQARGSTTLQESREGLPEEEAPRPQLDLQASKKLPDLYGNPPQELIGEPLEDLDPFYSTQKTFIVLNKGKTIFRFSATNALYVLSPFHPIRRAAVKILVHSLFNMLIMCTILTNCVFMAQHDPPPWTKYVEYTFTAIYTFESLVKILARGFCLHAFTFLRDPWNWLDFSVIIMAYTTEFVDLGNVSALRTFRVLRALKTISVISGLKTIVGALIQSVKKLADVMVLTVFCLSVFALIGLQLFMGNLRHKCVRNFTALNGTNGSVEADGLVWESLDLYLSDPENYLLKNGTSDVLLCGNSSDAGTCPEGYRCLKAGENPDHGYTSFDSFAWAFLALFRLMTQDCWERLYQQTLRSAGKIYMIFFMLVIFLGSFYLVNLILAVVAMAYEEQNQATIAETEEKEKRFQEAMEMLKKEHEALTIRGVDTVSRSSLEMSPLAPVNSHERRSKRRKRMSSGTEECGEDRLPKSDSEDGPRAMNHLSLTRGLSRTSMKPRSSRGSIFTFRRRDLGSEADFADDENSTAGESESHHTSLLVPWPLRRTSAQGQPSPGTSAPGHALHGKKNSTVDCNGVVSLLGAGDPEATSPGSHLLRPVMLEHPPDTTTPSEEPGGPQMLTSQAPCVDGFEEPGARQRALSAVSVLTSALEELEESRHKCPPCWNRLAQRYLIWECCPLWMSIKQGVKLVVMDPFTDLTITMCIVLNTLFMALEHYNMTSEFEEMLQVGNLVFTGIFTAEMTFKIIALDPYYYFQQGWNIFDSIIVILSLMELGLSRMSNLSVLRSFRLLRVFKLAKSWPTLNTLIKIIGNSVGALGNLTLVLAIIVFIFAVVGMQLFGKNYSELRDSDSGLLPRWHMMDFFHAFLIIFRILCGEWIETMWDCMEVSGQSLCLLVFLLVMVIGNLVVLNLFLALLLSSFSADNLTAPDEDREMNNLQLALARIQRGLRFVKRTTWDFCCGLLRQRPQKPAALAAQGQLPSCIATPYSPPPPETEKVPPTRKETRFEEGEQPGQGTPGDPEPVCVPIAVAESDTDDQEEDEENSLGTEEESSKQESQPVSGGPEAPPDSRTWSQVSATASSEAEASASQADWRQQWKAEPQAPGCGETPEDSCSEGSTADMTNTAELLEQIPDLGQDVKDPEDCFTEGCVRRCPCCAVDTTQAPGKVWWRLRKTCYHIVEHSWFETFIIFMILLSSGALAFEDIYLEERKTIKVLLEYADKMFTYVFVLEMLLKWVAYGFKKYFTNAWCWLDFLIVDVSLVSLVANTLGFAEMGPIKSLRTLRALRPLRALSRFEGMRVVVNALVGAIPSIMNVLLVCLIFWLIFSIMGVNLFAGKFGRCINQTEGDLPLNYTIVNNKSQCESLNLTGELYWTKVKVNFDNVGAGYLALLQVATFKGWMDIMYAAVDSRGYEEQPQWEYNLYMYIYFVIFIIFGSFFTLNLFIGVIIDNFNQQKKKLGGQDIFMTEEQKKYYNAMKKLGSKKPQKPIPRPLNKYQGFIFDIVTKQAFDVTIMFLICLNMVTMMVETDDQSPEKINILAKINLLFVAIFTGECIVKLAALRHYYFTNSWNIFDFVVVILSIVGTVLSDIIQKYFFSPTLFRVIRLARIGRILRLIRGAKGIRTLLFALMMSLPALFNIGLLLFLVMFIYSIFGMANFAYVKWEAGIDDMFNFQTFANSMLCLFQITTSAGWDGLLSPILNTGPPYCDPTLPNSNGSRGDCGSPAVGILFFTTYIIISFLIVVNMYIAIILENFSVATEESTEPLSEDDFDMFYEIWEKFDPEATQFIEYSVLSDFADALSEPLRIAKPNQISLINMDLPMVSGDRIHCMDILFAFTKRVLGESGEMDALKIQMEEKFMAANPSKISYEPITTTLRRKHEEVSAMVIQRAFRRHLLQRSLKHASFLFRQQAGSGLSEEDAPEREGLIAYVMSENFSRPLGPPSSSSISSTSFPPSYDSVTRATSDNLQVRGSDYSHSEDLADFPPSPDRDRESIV
For assay [3], the target named is T3, hNaV1.2 (Homo sapiens, UniProt Q99250). Briefly: Peak INa voltage-dependent block, patch clamp. It counts as cell-based. The protocol:
as §1

Assay [4] concerns the target T1, hNaV1.1. As to the kind of experiment: Peak INa tonic block, patch clamp. It counts as cell-based. The protocol: (§2) Tonic Block (TB): Tonic Block (TB) protocols used low stimulation rates (about 0.1 Hz) and negative potentials (−120 mV) to keep channels in closed (resting) states. Pharmacology was measured during peak INa in response to step to 0 mV. No leak subtraction was used.

Assay [5] deals with T2, hNaV1.5. As to the kind of experiment: Peak INa tonic block, patch clamp. The class given is cell-based. As to the method:
as §2

Assay [6] addresses T3, hNaV1.2. Briefly: Peak INa tonic block, patch clamp. It counts as cell-based. The protocol:
as §2

The next assay concerns male CD-1 mice. Briefly: Maximal electroshock induced seizure (MES) test. The class given is in vivo, mouse. As to the method:
Food and water were available ad libitum.
VPA was prepared in saline (Vehicle 1). All solutions were protected from light. All compounds and vehicles were dosed at 10 ml/kg.
The MES test was carried out over two days with 6 of 12 mice from each treatment group being tested on each day. Mice were brought to the test room at least one hour before the start of the experiment.
A Grass S88x (Grass Technologies of Astro-Med, Inc., West Warwick, RI) Stimulus Isolation Unit (A385, WPI Inc., USA) was set to deliver a 50 mA square-wave stimulus, with a 0.8 second duration, a pulse width of 10 msec, and a frequency of 50 Hz. A pair of custom stainless steel electrodes were soaked in 0.2% Agar, and then the subject received bilateral transauricular stimulation through ear-clip electrodes. During the stimulation, mice were manually restrained. They were then released into the observation cage for convulsion observation for 60 seconds immediately after stimulation. Each mouse was observed continuously by individuals blinded to treatment conditions and results were recorded.
Anti-seizure assessment endpoints were: (1) latency of hindlimb tonic flexion; (2) latency of hindlimb tonic extension; (3) total #hindlimb tonic flexions; (4) total #hindlimb tonic extensions; (5) latency to death; and (6) mortality rate
From these fitted curves, ED50 and EC50 values were calculated.
(In general: The maximal electroshock test induces tonic seizures with an electrical stimulus.)

Assay [7] concerns Scn8a^N1768D/+ transgenic mouse. As to the kind of experiment: Audiogenic induced seizures in Scn8a N1768D/+ mouse model. It counts as in vivo. The protocol: Both male and female N1768D (D/+) mice, 8-12 weeks old, were used in the study. Compound 1 was administered orally (p.o.) at three doses (1 mg/kg, 3 mg/kg, 10 mg/kg) and also vehicle 1 hour prior to testing. The mice were randomized such that at the completion of the study each individual mouse had been evaluated at each test dose of Compound 1 and vehicle. A minimum of 3 days was allowed to elapse before retesting the mice. At the time of testing, mice were taken from their home cage and transferred to a clean test cage located in a separate testing room where they were allowed to acclimate for about 20 seconds before the onset of the acoustic stimulus. To induce audiogenic seizures, a 15 kHz signal was generated using Tone Generator software (NCH Software, Inc.), amplified using a Kinter K3118 stereo amplifier (Kinter USA), and converted to sound using a small 3-watt speaker lowered into the testing chamber. The stimulus was applied for 30 seconds unless a seizure was detected before the 30-second time point, in which case the audiogenic stimulus was terminated. Videos of the event were recorded using a laptop webcam. On the final day of testing, brains and plasma were collected from the D/+ mice immediately after audiogenic seizure testing to determine concentrations of Compound 1. A separate cohort of 8 age-matched WT mice were also included (n=2/dose level) to achieve a sample size of n=4 for PK for each dose level. Brain and plasma specimens were submitted for bioanalytical analysis.

For assay [8], the target named is T1, hNaV1.1. As to the kind of experiment: Persistent INa, patch clamp. It counts as cell-based. The protocol:
(§3) Late (persistent) current Block: The inhibition of ATX-II activated late current was measured using a 200 ms voltage step to 0 mV. Protocols used low stimulation rates (about 0.1 Hz) and negative potentials (−120 mV) to keep channels in closed (resting) states. Pharmacology was measured as the mean INa during the final 20 ms of the step to 0 mV and leak subtraction was not used.

The target of assay [9] is T2, hNaV1.5. As to the kind of experiment: Persistent INa, patch clamp. The class given is cell-based. The protocol:
as §3

The target of assay [10] is T3, hNaV1.2. Briefly: Persistent INa, patch clamp. It counts as cell-based. The protocol: as §3
Assay [11] deals with heterozygous Kcnq2 K556E mice. Briefly: Pentylenetetrazole (PTZ) induced seizure, Kcnq2 model. It counts as in vivo, mouse. The protocol:
Pentylenetetrazole (PTZ), a GABA receptor antagonist, can be used to create a common, chemically-induced seizure model, a model of generalized seizure.
Mice were acclimated to experimental area for minimum 30 minutes before experimentation. All experiments were performed between 10:00 am and 12:30 pm. The treatment compounds and PTZ were always prepared fresh.
Mice were randomly assigned either to different doses of Compound 1 (10 mg/kg, 1 mg/kg, or 0.1 mg/kg) or a vehicle control containing 0.5% methylcellulose and 0.2% tween 80, and dosed via oral gavage (p.o). Compound 1 and the vehicle control were administered 60 minutes before the injection of PTZ.
PTZ (100 mg/kg) was dissolved in saline and administered subcutaneously (s.c) to the experimental mice. The latency to full tonic-clonic seizure with hind limb extension was measured. The animals were sacrificed either at the time of hind limb extension or 40 minutes after PTZ administration if no hind limb extension was recorded.
Data were analyzed using a Mantel-Cox log-rank test. Brain tissue and plasma were collected from some mice for each dose of Compound 1 at the PTZ endpoint for PK analysis.

T3 sequence (Q99250 whole entry): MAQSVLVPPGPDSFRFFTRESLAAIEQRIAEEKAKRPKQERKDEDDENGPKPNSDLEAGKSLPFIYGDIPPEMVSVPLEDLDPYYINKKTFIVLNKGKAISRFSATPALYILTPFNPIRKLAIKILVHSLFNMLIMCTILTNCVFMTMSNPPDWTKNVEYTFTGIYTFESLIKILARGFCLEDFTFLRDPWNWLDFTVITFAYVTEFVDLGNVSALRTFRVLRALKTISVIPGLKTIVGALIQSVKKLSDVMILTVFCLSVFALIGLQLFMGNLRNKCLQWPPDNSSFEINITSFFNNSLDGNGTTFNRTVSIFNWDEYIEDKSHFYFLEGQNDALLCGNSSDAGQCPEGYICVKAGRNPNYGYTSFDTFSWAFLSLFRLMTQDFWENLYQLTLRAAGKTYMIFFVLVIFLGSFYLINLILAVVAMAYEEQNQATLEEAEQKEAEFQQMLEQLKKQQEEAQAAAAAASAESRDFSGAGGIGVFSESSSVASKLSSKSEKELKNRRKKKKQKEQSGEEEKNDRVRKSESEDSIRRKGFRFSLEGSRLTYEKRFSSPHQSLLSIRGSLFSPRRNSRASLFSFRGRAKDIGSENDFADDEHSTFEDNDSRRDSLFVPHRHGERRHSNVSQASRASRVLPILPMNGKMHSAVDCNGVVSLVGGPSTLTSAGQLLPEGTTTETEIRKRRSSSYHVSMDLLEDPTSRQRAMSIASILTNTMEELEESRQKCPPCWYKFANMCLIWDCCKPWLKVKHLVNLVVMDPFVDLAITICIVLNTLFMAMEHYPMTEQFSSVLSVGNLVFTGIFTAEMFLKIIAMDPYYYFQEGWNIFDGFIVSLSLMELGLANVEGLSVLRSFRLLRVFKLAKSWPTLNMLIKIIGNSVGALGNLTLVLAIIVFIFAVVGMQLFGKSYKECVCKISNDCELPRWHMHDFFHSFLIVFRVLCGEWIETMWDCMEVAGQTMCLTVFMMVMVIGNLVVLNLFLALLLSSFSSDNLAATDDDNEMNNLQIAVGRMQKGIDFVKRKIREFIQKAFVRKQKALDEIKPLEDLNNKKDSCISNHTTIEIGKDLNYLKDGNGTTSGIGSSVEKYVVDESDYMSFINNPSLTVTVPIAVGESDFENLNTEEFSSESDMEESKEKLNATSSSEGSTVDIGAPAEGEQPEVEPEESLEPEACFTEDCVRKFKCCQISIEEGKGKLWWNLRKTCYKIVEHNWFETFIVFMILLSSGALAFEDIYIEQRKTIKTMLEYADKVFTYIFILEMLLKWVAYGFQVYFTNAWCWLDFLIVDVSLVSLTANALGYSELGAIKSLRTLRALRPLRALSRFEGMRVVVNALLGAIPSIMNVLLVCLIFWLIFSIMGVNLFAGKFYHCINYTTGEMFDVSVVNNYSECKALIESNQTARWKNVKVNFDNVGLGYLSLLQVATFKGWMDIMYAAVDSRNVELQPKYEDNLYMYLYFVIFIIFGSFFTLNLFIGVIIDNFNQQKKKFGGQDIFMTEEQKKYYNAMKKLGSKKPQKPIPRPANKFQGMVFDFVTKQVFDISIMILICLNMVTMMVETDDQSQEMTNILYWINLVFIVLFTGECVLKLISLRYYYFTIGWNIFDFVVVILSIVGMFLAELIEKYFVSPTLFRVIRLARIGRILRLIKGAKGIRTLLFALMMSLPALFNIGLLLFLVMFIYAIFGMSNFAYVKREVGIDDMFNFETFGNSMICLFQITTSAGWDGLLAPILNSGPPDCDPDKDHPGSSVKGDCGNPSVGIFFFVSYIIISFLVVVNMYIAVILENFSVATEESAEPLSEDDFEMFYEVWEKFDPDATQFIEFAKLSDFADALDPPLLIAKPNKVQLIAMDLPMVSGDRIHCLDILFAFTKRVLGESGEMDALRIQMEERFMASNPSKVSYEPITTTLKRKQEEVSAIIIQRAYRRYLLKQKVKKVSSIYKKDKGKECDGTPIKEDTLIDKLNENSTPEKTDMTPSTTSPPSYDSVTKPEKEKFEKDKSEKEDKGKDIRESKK

Consider `CCOC(F)(F)c1nnc2cnc(-c3cnc(OCC(F)(F)F)c(F)c3)cn12` [Compound 1, 3-(ethoxydifluoromethyl)-6-(5-fluoro-6-(2,2,2-trifluoroethoxy)pyridin-3-yl)-[1,2,4]triazolo[4,3-a]pyrazine], for which the “preference for persistent INa over peak INa voltage-dependent block” value at hNaV1.1 [1] is 6.3 fold; at hNaV1.5 [2], 5.8 fold; at hNaV1.2 [3], 8.2 fold. In addition, the 50% inhibitory concentration (IC50) (commonly the concentration that gives 50% inhibition) is 18900 nM against hNaV1.1 [4]; 13700 nM on hNaV1.2 [6]; 109 nM at hNaV1.1 [8]; 172 nM on hNaV1.5 [9]; 172 nM against hNaV1.2 [10]. For the same compound, the results for the “preference for persistent INa over peak INa tonic block” value at hNaV1.1 [4], at hNaV1.5 [5] and at hNaV1.2 [6] were 173 fold, over 174 fold and 80 fold, respectively. On hNaV1.5 [5] (at 30 000 nmol/L), the “peak INa tonic block inhibition” value worked out at 12%. In addition, the “latency to seizures following bilateral transauricular stimulation” value in the assay with male CD-1 mice (3 mg/kg p.o., 30 min before test) is “significantly increased”. Further, in the assay on male CD-1 mice (Compound 1 10 mg/kg), the “mice that did not exhibit tonic seizures” value is on record as 11 of 12. For the same compound, the “protection (increase in latency) against MES-induced tonic hindlimb seizures, dose-response” value in the assay on male CD-1 mice (Compound 1 0.3-10 mg/kg po) is listed as “dose-dependent increases in latency; also recorded: dose-dependent protection”. Moreover, the median effective dose (ED50) (commonly the midpoint of the dose-response relation) with male CD-1 mice (mouse MES, read-out: Efficacy (MES) ED50, increasing latency to tonic extension seizures) is 2 mg/kg. Besides, the “protection from audiogenic seizures” value in assay [7] (10 mg/kg p.o.) is listed as “complete protection”. Besides, in assay [7] (1, 3, 10 mg/kg p.o., 1 hour prior to testing), the “inhibition of audiogenic seizures” value was “dose dependent inhibition”. For the same compound, the “protection from seizures (FIG. 14B)” value in assay [7] (Scn8a N1768D DEE mouse model) is recorded as “completely block seizures”. Besides, the “efficacy in KCNQ2 K556E PTZ seizure model” value in assay [11] (10 mg/kg p.o., 60 min before PTZ 100 mg/kg s.c.) is “highly efficacious”. For the same compound, in assay [11] (Kcnq2 DEE mouse model, PTZ), the “protection from hindlimb extension (FIG. 14C)” value is given as “robust anticonvulsant activity”.

The values above are taken from US12582652B2, “3-(ethoxydifluoromethyl)-6-(5-fluoro-6-(2,2,2-trifluoroethoxy)pyridin-3-yl)-[1,2,4]triazolo[4,3-a]pyrazine as an ion channel modulator” (Praxis Precision Medicines, Inc., priority 2022, dated 2026).
